What was measured:
UV-treated HeLa cells = assay: UV-treated clonogenic assay; type: cell-based, human; conditions: 10 J/m^2 UV
Protocol: Figure 5. (A) Human cancer cell growth inhibition dose-response curves of 3-O-methyl-funicone (1). Various concentrations (0 to 150 μM) of compound 1 were incubated with human colon carcinoma (HCT116) cells (circle) and human cervix carcinoma (HeLa) cells (square) for 24 h. Rate of cell growth was determined by MTT assay as described in the Experimental section. Data are shown as the means ± SEM of five independent experiments. (B) Clonogenic survival of UV-treated HeLa cells by compound 1. Various concentrations (0 to 100 μM) of compound 1 were incubated with 10 J/m^2 UV-treated (closed circle) or untreated (open circle) HeLa cells. After 7 days, the number of colonies in each treatment group was counted. Values are the means ± SEM of two independent experiments.
For clonogenic assay, 600 cells of HeLa were seeded on 10-cm plates and allowed to grow for 24 h before 10 J/m^2 UV irradiation treatment. The cells were then treated with various concentrations of compound 1 for 24 h. The cells were then washed with PBS and fresh medium was added for an additional 7-day incubation in a humidified 10% CO2 incubator at 37 °C. […] The number of colonies in each treatment group was counted, and the cell survival data were presented as percentage of the colony numbers of treated/untreated cells.

human pol κ = biological target: T1, human pol κ (Homo sapiens, UniProt Q9UBT6); assay: DNA polymerase assay, pol κ; type: biochemical
T1 construct: A truncated form of pol κ (residues 1–560) with 6 x His-tags attached at the C-terminus; 6xHis (C); made in house; host or cells: E. coli
T1 sequence (Q9UBT6 1-560): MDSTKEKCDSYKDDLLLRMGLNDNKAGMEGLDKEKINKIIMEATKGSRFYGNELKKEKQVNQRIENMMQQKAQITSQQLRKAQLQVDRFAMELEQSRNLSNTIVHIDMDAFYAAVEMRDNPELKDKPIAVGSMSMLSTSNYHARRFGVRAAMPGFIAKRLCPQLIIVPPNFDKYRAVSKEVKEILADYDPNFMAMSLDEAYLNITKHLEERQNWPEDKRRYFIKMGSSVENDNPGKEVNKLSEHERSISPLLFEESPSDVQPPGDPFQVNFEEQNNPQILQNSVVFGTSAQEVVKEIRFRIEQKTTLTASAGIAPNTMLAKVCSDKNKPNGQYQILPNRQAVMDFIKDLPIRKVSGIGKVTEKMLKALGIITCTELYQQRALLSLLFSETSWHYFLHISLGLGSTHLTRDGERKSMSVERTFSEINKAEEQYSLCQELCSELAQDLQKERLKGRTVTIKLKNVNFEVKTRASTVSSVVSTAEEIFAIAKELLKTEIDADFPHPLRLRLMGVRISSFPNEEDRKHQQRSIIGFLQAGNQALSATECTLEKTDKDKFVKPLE
Text: Pol α was purified from calf thymus by immuno-affinity column chromatography, as described by Tamai et al.. Recombinant rat pol β was purified from E. coli JMpβ5, as described by Date et al.. The human pol γ catalytic gene was cloned into pFastBac. Histidine-tagged enzyme was expressed using the BAC-TO-BAC HT Baculovirus Expression System according to the supplier’s manual (Life Technologies, MD, USA) and purified using ProBoundresin (Invitrogen Japan, Tokyo, Japan). Human pols δ and ɛ were purified by nuclear fractionation of human peripheral blood cancer cells (Molt-4) using the second subunit of pols δ and ɛ-conjugated affinity column chromatography, respectively. A truncated form of human pol η (residues 1–511) tagged with His6 at its C-terminal was expressed in E. coli cells and purified as described by Kusumoto et al.. A recombinant mouse pol ι tagged with His6 at its C-terminal was expressed and purified by Ni-NTA column chromatography as described elsewhere (Masutani et al., in preparation). […]
The compounds were dissolved in distilled dimethyl sulfoxide (DMSO) at various concentrations and sonicated for 30 sec. […] Activity without the inhibitor was considered 100%, and the remaining activity at each concentration of the inhibitor was determined relative to this value. […]

Structure (SMILES): C/C=C/c1occ(C(=O)c2c(OC)cc(OC)cc2C(=O)OC)c(=O)c1OC [compound 1, 3-O-methylfunicone]
- inhibiting clonogenic survival effect on UV exposed cells versus non-exposed cells (UV-treated HeLa cells; 100 μM, HeLa, 7 days): 4.3 fold
- HeLa cell UV-sensitivity (UV-treated HeLa cells; 0 to 100 μM): significantly enhanced
- effect on pol κ activity (human pol κ; 100 μM): selectively inhibit
- IC50 (human pol κ; poly(dA)/oligo(dT)18 and dTTP, 0.05 units enzyme, read-out: 50% inhibition of pol κ (IC50)): 12.5 µM

From PMC2810227, “3-O-Methylfunicone, a Selective Inhibitor of Mammalian Y-Family DNA Polymerases from an Australian Sea Salt Fungal Strain” (Marine Drugs, 2009)
